# Like-named read-outs stand apart in the source and are kept apart here.
# Legend:
# Type in all cases: cell-based
# [1] = tested on: mouse allogenic MLR (BALB/c mouse spleen cells stimulated with C57BL/6 mouse spleen cells); experiment: mouse allogenic mixed lymphocyte reaction (MLR), 3H-thymidine uptake
# How it was run: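 BALB/c responder spleen cells were mixed in equal amounts with mitomycin C-treated (40 μg/ml, 60 min, 37 °C) C57BL/6 stimulator spleen cells, each at 10^7 cells/ml in RPMI1640 with 20% FCS and 10^-4 M 2-mercaptoethanol. Blastogenesis was read as 3H-thymidine uptake (18.5 KBq/well, 4 h) after culture and expressed as % suppression. Compounds were dissolved in methanol, then diluted in medium.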
# [2] = tested on: human allogenic MLR (human peripheral blood lymphocytes); experiment: human allogenic MLR-suppressive activity, 3H-thymidine uptake; conditions: for suppressive activity in human allogenic MLR (in words): 1 to 0.0001 μg/ml
# Protocol: The human allogenic MLR-suppressive activity was assayed as follows:
# Human peripheral blood lymphocytes obtained by Ficoll-Paque density gradient centrifugation of normal human peripheral blood were suspended in the RPMI1640 culture medium supplemented with 10% FCS, placed in a plastic dish, and cultured in an atmosphere of 5% carbon dioxide and 95% air at 37° C. for 2 hours. After termination of culture, the supernatant after gentle pipetting was collected and centrifuged (1000 rpm, for 5 minutes) to obtain plastic-nonadherent cells. The plastic-nonadherent cells were allowed to pass through a nylon-wool column to give nylon-nonadherent cells, and the concentration of the cell suspension was adjusted to 4×10^6 cells/ml by using the RPMI1640 culture medium supplemented with 10% FCS, and used as the responder cell suspension.
# The plastic-adherent cells were removed from the plastic dish by vigorous pipetting after addition of phosphate buffered saline (PBS) supplemented with 5% FCS and 0.02% disodium ethylenediaminetetraacetic acid (EDTA). The plastic-adherent cells were treated with 40 μg/ml of mitomycin C at 37° C. for 60 minutes, washed three times, and suspended to the concentration of 4×10^6 cells/ml in the RPMI1640 culture medium supplemented with 10% FCS. The resultant suspension was used as the stimulator cell suspension.
# After termination of culture, 37 KBq/well of ^3 H-thymidine was added, and after 18 hours of culture, the cells were harvested by a cell-harvester. The radioactivity incorporated into the cells was measured by a liquid scintillation counter, which was used as an index of blastogenic response of lymphocytes in human allogenic MLR. The suppression of human allogenic MLR was evaluated by calculating the percent suppression by the following formula. [formula]
# CTLL-2 cells = experiment: suppression of proliferation of IL-2-dependent mouse cell line CTLL-2 induced by IL-2; conditions: IL-2 50 U/ml; for inhibition at 0.001 µg/mL / inhibition at 0.01 µg/mL / inhibition at 0.1 µg/mL / inhibition at 1 µg/mL: Mus musculus, CTLL-2, 68 h
# Protocol: IL-2-dependent mouse cell line CTLL-2 cells were suspended in the RPMI1640 culture medium supplemented with 30% FCS to the concentration of 4×10^5 cells/ml. Fifty μl of the cell suspension, 50 μl of 200 U/ml recombinant human IL-2 (rhIL-2) and 100 μl of the test substance were added to a 96-well flat-bottomed microtest plate. […] The percent suppression (%) was calculated by the following formula. [formula]
# [3] = Mus musculus, Lymphocyte, read-out: Suppression
compound,measurement,setting,value
CCCCCCCCCCCCCCCC[C@@H](O)[C@H](O)[C@@](N)(CO)C(=O)O [Example 2],3H-thymidine uptake,[1]; 0.001 μg/ml; Table 1A,17981 cpm
same,3H-thymidine uptake,[1]; 0.01 μg/ml; Table 1A,12011 cpm
same,3H-thymidine uptake,[1]; 0.1 μg/ml; Table 1A,2329 cpm
same,3H-thymidine uptake,[1]; 1 μg/ml; Table 1A,1869 cpm
same,IC50,"[1]; Mus musculus, Lymphocyte, read-out: 50%-inhibition concentration (IC50) in mouse allogenic MLR",0.016 µg/mL
same,inhibition at 0.001 µg/mL,[1]; [3],2.7%
same,inhibition at 0.01 µg/mL,[1]; [3],38.2%
same,inhibition at 0.1 µg/mL,[1]; [3],95.8%
same,inhibition at 1 µg/mL,[1]; [3],98.6%
same,3H-thymidine uptake,"[2]; 0.00001 μg/ml, Donor C/Donor D",13909 cpm
same,3H-thymidine uptake,"[2]; 0.0001 μg/ml, Donor C/Donor D",15259 cpm
same,3H-thymidine uptake,"[2]; 0.001 μg/ml, Donor A/Donor B",9258 cpm
same,3H-thymidine uptake,"[2]; 0.001 μg/ml, Donor C/Donor D",15503 cpm
same,3H-thymidine uptake,"[2]; 0.01 μg/ml, Donor A/Donor B",8119 cpm
same,3H-thymidine uptake,"[2]; 0.01 μg/ml, Donor C/Donor D",11263 cpm
same,3H-thymidine uptake,"[2]; 0.1 μg/ml, Donor A/Donor B",4624 cpm
same,3H-thymidine uptake,"[2]; 0.1 μg/ml, Donor C/Donor D",7300 cpm
same,3H-thymidine uptake,"[2]; 1 μg/ml, Donor A/Donor B",7130 cpm
same,3H-thymidine uptake,"[2]; 1 μg/ml, Donor C/Donor D",6583 cpm
same,suppressive activity in human allogenic MLR (in words),[2],exhibited suppressive activity in human allogenic MLR in a concentration-dependent manner
same,inhibition at 10 pg/mL,"[2]; Homo sapiens, Lymphocyte, read-out: Suppression, 0.00001 μg/ml, Donor C/Donor D",31.4%
same,inhibition at 0.0001 µg/mL,"[2]; Homo sapiens, Lymphocyte, read-out: Suppression, 0.0001 μg/ml, Donor C/Donor D",24.5%
same,inhibition at 0.001 µg/mL,"[2]; Homo sapiens, Lymphocyte, read-out: Suppression, 0.001 μg/ml, Donor A/Donor B",23.6%
same,inhibition at 0.001 µg/mL,"[2]; Homo sapiens, Lymphocyte, read-out: Suppression, 0.001 μg/ml, Donor C/Donor D",23.2%
same,inhibition at 0.01 µg/mL,"[2]; Homo sapiens, Lymphocyte, read-out: Suppression, 0.01 μg/ml, Donor A/Donor B",33.8%
same,inhibition at 0.01 µg/mL,"[2]; Homo sapiens, Lymphocyte, read-out: Suppression, 0.01 μg/ml, Donor C/Donor D",44.9%
same,inhibition at 0.1 µg/mL,"[2]; Homo sapiens, Lymphocyte, read-out: Suppression, 0.1 μg/ml, Donor A/Donor B",65.2%
same,inhibition at 0.1 µg/mL,"[2]; Homo sapiens, Lymphocyte, read-out: Suppression, 0.1 μg/ml, Donor C/Donor D",65%
same,inhibition at 1 µg/mL,"[2]; Homo sapiens, Lymphocyte, read-out: Suppression, 1 μg/ml, Donor A/Donor B",42.7%
same,inhibition at 1 µg/mL,"[2]; Homo sapiens, Lymphocyte, read-out: Suppression, 1 μg/ml, Donor C/Donor D",68.7%
same,optical density (OD570),"CTLL-2 cells; 0.001 μg/ml, Table 6A",0.555
same,optical density (OD570),"CTLL-2 cells; 0.001 μg/ml, Table 6B",0.898
same,optical density (OD570),"CTLL-2 cells; 0.01 μg/ml, Table 6A",0.543
same,optical density (OD570),"CTLL-2 cells; 0.01 μg/ml, Table 6B",0.880
same,optical density (OD570),"CTLL-2 cells; 0.1 μg/ml, Table 6A",0.558
same,optical density (OD570),"CTLL-2 cells; 0.1 μg/ml, Table 6B",0.774
same,optical density (OD570),"CTLL-2 cells; 1 μg/ml, Table 6A",0.161
same,optical density (OD570),"CTLL-2 cells; 1 μg/ml, Table 6B",0.508
same,inhibition at 0.001 µg/mL,"CTLL-2 cells; read-out: Suppression, 0.001 μg/ml, Table 6A",5.3%
same,inhibition at 0.001 µg/mL,"CTLL-2 cells; read-out: Suppression, 0.001 μg/ml, Table 6B",6.7%
same,inhibition at 0.01 µg/mL,"CTLL-2 cells; read-out: Suppression, 0.01 μg/ml, Table 6A",7.4%
same,inhibition at 0.01 µg/mL,"CTLL-2 cells; read-out: Suppression, 0.01 μg/ml, Table 6B",8.7%
same,inhibition at 0.1 µg/mL,"CTLL-2 cells; read-out: Suppression, 0.1 μg/ml, Table 6A",4.8%
same,inhibition at 0.1 µg/mL,"CTLL-2 cells; read-out: Suppression, 0.1 μg/ml, Table 6B",20%
same,inhibition at 1 µg/mL,"CTLL-2 cells; read-out: Suppression, 1 μg/ml, Table 6A",72.6%
same,inhibition at 1 µg/mL,"CTLL-2 cells; read-out: Suppression, 1 μg/ml, Table 6B",48.4%
CCCCCCC(O)C=CCCCCC=CCC(O)C(O)C(N)(CO)C(=O)O (stereo not drawn) [Example 1],3H-thymidine uptake,[1]; 0.0001 μg/ml; Table 1A,17985 cpm
same,3H-thymidine uptake,[1]; 0.001 μg/ml; Table 1A,13566 cpm
same,3H-thymidine uptake,[1]; 0.01 μg/ml; Table 1A,11016 cpm
same,3H-thymidine uptake,[1]; 0.1 μg/ml; Table 1A,1020 cpm
same,3H-thymidine uptake,[1]; 1 μg/ml; Table 1A,919 cpm
same,inhibition at 0.0001 µg/mL,"[1]; Mus musculus, Lymphocyte, 0.0001 μg/ml; Table 1A; read-out: Suppression",2.7%
same,inhibition at 0.001 µg/mL,"[1]; Mus musculus, Lymphocyte, 0.001 μg/ml; Table 1A; read-out: Suppression",29%
same,inhibition at 0.01 µg/mL,"[1]; Mus musculus, Lymphocyte, 0.01 μg/ml; Table 1A; read-out: Suppression",44.1%
same,inhibition at 0.1 µg/mL,"[1]; Mus musculus, Lymphocyte, 0.1 μg/ml; Table 1A; read-out: Suppression",100%
same,inhibition at 1 µg/mL,"[1]; Mus musculus, Lymphocyte, 1 μg/ml; Table 1A; read-out: Suppression",100%
same,IC50,"[1]; Mus musculus, Lymphocyte; read-out: 50%-inhibition concentration (IC50) in mouse allogenic MLR",0.013 µg/mL
same,3H-thymidine uptake,"[2]; 0.0001 μg/ml, Donor C/Donor D",20334 cpm
same,3H-thymidine uptake,"[2]; 0.001 μg/ml, Donor A/Donor B",12137 cpm
same,3H-thymidine uptake,"[2]; 0.001 μg/ml, Donor C/Donor D",15284 cpm
same,3H-thymidine uptake,"[2]; 0.01 μg/ml, Donor A/Donor B",7479 cpm
same,3H-thymidine uptake,"[2]; 0.01 μg/ml, Donor C/Donor D",7232 cpm
same,3H-thymidine uptake,"[2]; 0.1 μg/ml, Donor A/Donor B",5590 cpm
same,3H-thymidine uptake,"[2]; 0.1 μg/ml, Donor C/Donor D",5292 cpm
same,3H-thymidine uptake,"[2]; 1 μg/ml, Donor A/Donor B",5613 cpm
same,3H-thymidine uptake,"[2]; 1 μg/ml, Donor C/Donor D",6689 cpm
same,suppressive activity in human allogenic MLR (in words),[2],exhibited suppressive activity in human allogenic MLR in a concentration-dependent manner
same,inhibition at 0.0001 µg/mL,"[2]; Homo sapiens, Lymphocyte, 0.0001 μg/ml, Donor C/Donor D, read-out: Suppression",1.4%
same,inhibition at 0.001 µg/mL,"[2]; Homo sapiens, Lymphocyte, 0.001 μg/ml, Donor A/Donor B, read-out: Suppression",0%
same,inhibition at 0.001 µg/mL,"[2]; Homo sapiens, Lymphocyte, 0.001 μg/ml, Donor C/Donor D, read-out: Suppression",24.4%
same,inhibition at 0.01 µg/mL,"[2]; Homo sapiens, Lymphocyte, 0.01 μg/ml, Donor A/Donor B, read-out: Suppression",39.6%
same,inhibition at 0.01 µg/mL,"[2]; Homo sapiens, Lymphocyte, 0.01 μg/ml, Donor C/Donor D, read-out: Suppression",65.4%
same,inhibition at 0.1 µg/mL,"[2]; Homo sapiens, Lymphocyte, 0.1 μg/ml, Donor A/Donor B, read-out: Suppression",56.5%
same,inhibition at 0.1 µg/mL,"[2]; Homo sapiens, Lymphocyte, 0.1 μg/ml, Donor C/Donor D, read-out: Suppression",75.3%
same,inhibition at 1 µg/mL,"[2]; Homo sapiens, Lymphocyte, 1 μg/ml, Donor A/Donor B, read-out: Suppression",56.3%
same,inhibition at 1 µg/mL,"[2]; Homo sapiens, Lymphocyte, 1 μg/ml, Donor C/Donor D, read-out: Suppression",68.2%
same,optical density (OD570),"CTLL-2 cells; 0.001 μg/ml, Table 6A",0.508
same,optical density (OD570),"CTLL-2 cells; 0.01 μg/ml, Table 6A",0.556
same,optical density (OD570),"CTLL-2 cells; 0.1 μg/ml, Table 6A",0.009
same,optical density (OD570),"CTLL-2 cells; 1 μg/ml, Table 6A",0.005
same,inhibition at 0.001 µg/mL,"CTLL-2 cells; 0.001 μg/ml, Table 6A, read-out: Suppression",13.3%
same,inhibition at 0.01 µg/mL,"CTLL-2 cells; 0.01 μg/ml, Table 6A, read-out: Suppression",5.1%
same,inhibition at 0.1 µg/mL,"CTLL-2 cells; 0.1 μg/ml, Table 6A, read-out: Suppression",98.6%
same,inhibition at 1 µg/mL,"CTLL-2 cells; 1 μg/ml, Table 6A, read-out: Suppression",99.3%

# Reference: patent US5068247A, “2-aminopentanoic acid compounds and their use as immunosuppressants” (priority 1989, dated 1991)
